Data from publication PMC9501633, “Synthesis, Characterisation and Mechanism of Action of Anticancer 3-Fluoroazetidin-2-ones” (Pharmaceuticals, 2022).

Experiments:
[1] = tested on: MCF-7 human breast cancer cells; test: AlamarBlue cell viability assay; type: cell-based; details: for IC50: MCF-7, 72 h
Experimental: The antiproliferative potential of the synthesised 3-fluoro β-lactams 26–35 and 3,3-difluoro β-lactams 36–45 was evaluated in MCF-7 human breast cancer cells using the AlamarBlue assay, with CA-4 as reference compound (Figure 3). […] The results for the preliminary in vitro antiproliferative screen for 3-fluoro β-lactam compounds (26–29), which contain different substituents at the para position in the B ring, are presented in Figure 3A.
Cells were seeded at a density of 5 × 10^3 cells/well (MCF-7 and MDA-MB-231) and 1 × 10^4 cells/well (HEK-293T) in 96-well plates (200 μL per well). After 24 h, cells were then treated with medium alone, with vehicle (1% ethanol (v/v)) or with CA-4 or β-lactam compounds at 1 μM and 10 μM concentrations. […] Cell proliferation for MCF-7 cells was analysed with the AlamarBlue assay (Invitrogen Corp.) as previously described by us. After 72 h, AlamarBlue (10% (v/v)) was added to each well, and plates were incubated for 3–5 h at 37 °C in the dark. Fluorescence results were obtained with a 96-well fluorimeter with excitation at 530 nm and emission at 590 nm with results recorded as percentage viability relative to vehicle control (100%). Dose–response curves were obtained and IC50 values (concentration of drug resulting in 50% reduction in cell survival) were calculated using Prism (GraphPad Software, Inc., La Jolla, CA, USA).
Figure 3 Preliminary cell viability data for 3-fluoro and 3,3-difluoro β-lactam compounds. (A) 3-Fluoro β-lactam compounds containing different para-substituent ring B 26–29; 3-fluoro β-lactam compounds containing different meta-substituent ring B 30, 32–35; (B) 3-difluoro β-lactam compounds containing different para-substituent ring B 36–39; 3-difluoro β-lactam compounds containing different meta-substituent ring B 40, 42–45 in MCF-7 breast cancer cells. Cell proliferation of MCF-7 cells was determined with an AlamarBlue assay (seeding density […] for 96-well plates). Compound concentrations of either 10 μM or 1 μM for 72 h were used to treat the cells with control wells containing vehicle ethanol (1% v/v) and CA-4 (10 μM and 1 μM). The mean value for three experiments is shown with the ± S.E.M. for three independent experiments.

[2] = tested on: TK-10; test: NCI 60 cell line screen, Renal; type: cell-based, human
[3] = tested on: MALME-3M; test: NCI 60 cell line screen, Melanoma; type: cell-based, human
[4] = tested on: MDA-MB-231/ATCC; test: NCI 60 cell line screen, Breast; type: cell-based, human
[5] = tested on: A549/A TCC; test: NCI 60 cell line screen, NSCLung; type: cell-based, human
[6] = tested on: OVCAR-4; test: NCI 60 cell line screen, Ovarian; type: cell-based, human
[7] = tested on: M14; test: NCI 60 cell line screen, Melanoma; type: cell-based, human; details: for GI50: 5-dose, 48 h
[8] = tested on: NCI-H23; test: NCI 60 cell line screen, NSCLung; type: cell-based, human
[9] = tested on: leukaemia panel; test: NCI 60 cell line one-dose screen, panel mean; type: cell-based; details: Homo sapiens, one dose 10 μM, read-out: mean growth inhibition
Experimental: The antiproliferative effects of selected compounds 33, 37 and 43 were initially evaluated in the NCI 60 cell line screen at 10 μM concentration (see Supplementary Materials Table S3).
aData obtained from NCI in vitro human tumour cell screen 1 dose assay (10 µM). 33 (NCI

[10] = tested on: K-562; test: NCI 60 cell line screen, Leukaemia; type: cell-based, human
[11] = tested on: NCI-H226; test: NCI 60 cell line screen, NSCLung; type: cell-based, human
[12] = tested on: SF-539; test: NCI 60 cell line screen, CNS; type: cell-based, human
[13] = tested on: BT-549; test: NCI 60 cell line screen, Breast; type: cell-based, human
[14] = tested on: SNB-75; test: NCI 60 cell line screen, CNS; type: cell-based, human
[15] = tested on: SK-MEL-5; test: NCI 60 cell line screen, Melanoma; type: cell-based, human
[16] = tested on: U251; test: NCI 60 cell line screen, CNS; type: cell-based, human
[17] = tested on: NCI-H460; test: NCI 60 cell line screen, NSCLung; type: cell-based, human
[18] = tested on: MCF7; test: NCI 60 cell line screen, Breast; type: cell-based, human
[19] = tested on: T-47D; test: NCI 60 cell line screen, Breast; type: cell-based, human
[20] = tested on: NCI-H322M; test: NCI 60 cell line screen, NSCLung; type: cell-based, human
[21] = tested on: RPMI-8226; test: NCI 60 cell line screen, Leukaemia; type: cell-based, human
[22] = tested on: COLO 205; test: NCI 60 cell line screen, Colon; type: cell-based, human
[23] = tested on: PC-3; test: NCI 60 cell line screen, Prostate; type: cell-based, human
[24] = tested on: KM12; test: NCI 60 cell line screen, Colon; type: cell-based, human
[25] = Homo sapiens, 5-dose, 48 h, read-out: LC50 (the source's name)

## COc1ccc(/C=C\c2cc(OC)c(OC)c(OC)c2)cc1O [CA-4, combretastatin A-4, reference compound]
[1]; Homo sapiens, MCF7, 72 h
  IC50: 3 nM
[1]
  IC50: 3.5 nM

## COc1ccc(C2C(F)C(=O)N2c2cc(OC)c(OC)c(OC)c2)cc1F (centres unmarked) [Compound 33, 3-Fluoro-4-(3-fluoro-4-methoxyphenyl)-1-(3,4,5-trimethoxyphenyl)azetidin-2-one]
[2]; 5-dose, 48 h
  TGI: >100000 nM
[2]; Homo sapiens, 5-dose, 48 h
  GI50: 38600 nM
[2]; Homo sapiens, one dose 10 µM
  inhibition at 10 µM: 35.6%
[2]; one dose 10 µM
  Growth %: 64.4%
[3]; 5-dose, 48 h
  TGI: >100000 nM
[3]; Homo sapiens, one dose 10 µM
  inhibition at 10 µM: 26%
[3]; one dose 10 µM
  Growth %: 74.02%
[4]; 5-dose, 48 h
  TGI: >100000 nM
[4]; Homo sapiens, 5-dose, 48 h
  GI50: 355 nM
[4]; Homo sapiens, one dose 10 µM
  inhibition at 10 µM: 80.3%
[4]; one dose 10 µM
  Growth %: 19.65%
[5]; 5-dose, 48 h
  TGI: >100000 nM
[5]; Homo sapiens, 5-dose, 48 h
  GI50: 394 nM
[5]; Homo sapiens, one dose 10 µM
  inhibition at 10 µM: 84.7%
[5]; one dose 10 µM
  Growth %: 15.33%
[6]; 5-dose, 48 h
  TGI: >100000 nM
[6]; Homo sapiens, 5-dose, 48 h
  GI50: 966 nM
[6]; Homo sapiens, one dose 10 µM
  inhibition at 10 µM: 45.1%
[6]; one dose 10 µM
  Growth %: 54.92%
[7]
  GI50: 25.4 nM
[7]; Homo sapiens, M14, 48 h
  GI50: 25 nM
[7]; Homo sapiens, one dose 10 µM
  inhibition at 10 µM: 98.1%
[7]; one dose 10 µM
  Growth %: 1.91%
[8]; 5-dose, 48 h
  TGI: >100000 nM
[8]; Homo sapiens, 5-dose, 48 h
  GI50: 273 nM
[8]; Homo sapiens, one dose 10 µM
  inhibition at 10 µM: 78.7%
[8]; one dose 10 µM
  Growth %: 21.3%
[9]
  inhibition at 10 µM: 90.6%
[10]; 5-dose, 48 h
  GI50: 38.3 nM
  TGI: >100000 nM
[10]; Homo sapiens, K562, 48 h, 5-dose, 48 h
  GI50: 38 nM
[10]; Homo sapiens, K562, one dose 10 µM
  inhibition at 10 µM: 90.5%
[10]; one dose 10 µM
  Growth %: 9.45%
[11]; 5-dose, 48 h
  TGI: >100000 nM
[11]; Homo sapiens, 5-dose, 48 h
  GI50: 22200 nM
[11]; Homo sapiens, one dose 10 µM
  inhibition at 10 µM: 41%
[11]; one dose 10 µM
  Growth %: 58.99%
[12]; 5-dose, 48 h
  TGI: 217 nM
[12]; Homo sapiens, 5-dose, 48 h
  GI50: 28 nM
[12]; Homo sapiens, one dose 10 µM
  inhibition at 10 µM: 95.8%
[12]; one dose 10 µM
  Growth %: 4.17%
[13]; 5-dose, 48 h
  TGI: 33800 nM
[13]; Homo sapiens, 5-dose, 48 h
  GI50: 49.8 nM
[13]; Homo sapiens, one dose 10 µM
  inhibition at 10 µM: 84.7%
[13]; one dose 10 µM
  Growth %: 15.26%
[14]; 5-dose, 48 h
  TGI: >100000 nM
[14]; Homo sapiens, 5-dose, 48 h
  GI50: > 100000 nM
[14]; Homo sapiens, one dose 10 µM
  inhibition at 10 µM: 49.1%
[14]; one dose 10 µM
  Growth %: 50.89%
[15]; 5-dose, 48 h
  TGI: 350 nM
[15]; Homo sapiens, 5-dose, 48 h
  GI50: 45.6 nM
[15]; [25]
  CC50: 91300 nM
[15]; Homo sapiens, one dose 10 µM
  inhibition at 10 µM: 131%
[15]; one dose 10 µM
  Growth %: -31.46%
[16]; 5-dose, 48 h
  TGI: >100000 nM
[16]; Homo sapiens, U-251, 5-dose, 48 h
  GI50: 23.6 nM
[16]; Homo sapiens, U-251, one dose 10 µM
  inhibition at 10 µM: 88.1%
[16]; one dose 10 µM
  Growth %: 11.86%
[17]; 5-dose, 48 h
  TGI: 91100 nM
[17]; Homo sapiens, 5-dose, 48 h
  GI50: 356 nM
[17]; Homo sapiens, one dose 10 µM
  inhibition at 10 µM: 92.9%
[17]; one dose 10 µM
  Growth %: 7.06%
[18]; Homo sapiens, MCF7, MCF7, one dose 10 µM
  inhibition at 10 µM: 87.2%
[18]; Homo sapiens, MCF7, 5-dose, 48 h
  GI50: 36.4 nM
[18]; MCF7, 5-dose, 48 h
  TGI: >100000 nM
[18]; MCF7, one dose 10 µM
  Growth %: 12.83%
  Inhibition %: 87.2%
[19]; 5-dose, 48 h
  TGI: >100000 nM
[19]; Homo sapiens, T47D, one dose 10 µM
  inhibition at 10 µM: 25.1%
[19]; one dose 10 µM
  Growth %: 74.94%
[20]; 5-dose, 48 h
  TGI: >100000 nM
[20]; Homo sapiens, 5-dose, 48 h
  GI50: 1630 nM
[20]; Homo sapiens, one dose 10 µM
  inhibition at 10 µM: 53.5%
[20]; one dose 10 µM
  Growth %: 46.45%
[21]; 5-dose, 48 h
  TGI: 37300 nM
[21]; Homo sapiens, 5-dose, 48 h
  GI50: 55 nM
[21]; Homo sapiens, one dose 10 µM
  inhibition at 10 µM: 84.7%
[21]; one dose 10 µM
  Growth %: 15.32%
[1]; Homo sapiens, MCF7, 72 h, MCF-7, 1 μM, 72 h, read-out: viable cells remaining
  viability at 1 µM: 37%
[1]; Homo sapiens, MCF7, 72 h
  IC50: 95 nM
[22]; 5-dose, 48 h
  TGI: 503 nM
[22]; Homo sapiens, 5-dose, 48 h
  GI50: 156 nM
[22]; [25]
  CC50: 8230 nM
[22]; Homo sapiens, one dose 10 µM
  inhibition at 10 µM: 168%
[22]; one dose 10 µM
  Growth %: -68%
[23]; 5-dose, 48 h
  TGI: >100000 nM
[23]; Homo sapiens, 5-dose, 48 h
  GI50: 42 nM
[23]; Homo sapiens, one dose 10 µM
  inhibition at 10 µM: 76.9%
[23]; one dose 10 µM
  Growth %: 23.13%
[24]; 5-dose, 48 h
  TGI: >100000 nM
[24]; Homo sapiens, 5-dose, 48 h
  GI50: 59.6 nM
[24]; Homo sapiens, one dose 10 µM
  inhibition at 10 µM: 89.3%
[24]; one dose 10 µM
  Growth %: 10.73%
